Reference: patent US8372408B2, “Use of Phaeodactylum algae extract for depigmenting the skin” (LVMH Recherche, priority 2007, dated 2013)
Values joined by “and” are separate entries in the source; they are usually repeats but may differ in a detail not shown here. Equal values may be shown once. Residues, ends and D or L forms follow the SMILES beside them. *: point of attachment. Cbz = O=C(OCc1ccccc1)*

Columns and labels:
[1] = tested on: ubiquitin proteins in MNT-1 melanocyte line; assay: Anti-ubiquitin western blot of treated MNT1 cells; format: cell-based, human; conditions: 24 hours or 72 hours after treatment, FIG. 3A, 3B
Method: (§1) 2.2 Treatment of MNT1 in Order to Assay the Proteasome, the Ubiquitin Proteins and the Tyrosinase by Western Blotting
(§2) 10^6 MNT1 cells/dish 35 mm in diameter, in quadruplicate
(§3) Treatment on D1 • Linoleic acid 25 μM • Palmitic acid 25 μM • Phaeodactylum 5 μg/ml
(§4) +1% bovine serum albumin (BSA)+Vitamin E (Vitamin E) 50 μM+Vitamin C (Vitamin C) 1 mM • Linoleic acid 25 μM • Palmitic acid 25 μM • Phaeodactylum 5 μg/ml
(§5) Preparation of the Lyzates on D2, D3 and D4
(§6) Recovery of the cell lawn in 150 μl of Laemmli 2× buffer+1% DTT (10 mM) by scraping.
(§7) Electrophoresis of the proteins is performed in a polyacrylamide minigel 1 mm to […] thick, under denaturing and reducing conditions, in batch buffer according to the Laemmli method (1970). The gels containing 12% T, 2.7% C allow separation of the low molecular weight proteins ranging from 20 to 120 kDa. The gels containing 8% T; 2.7% C allow separation of the high molecular weight proteins from 35 to 250 kDa.
(§8) Next, this membrane is placed in contact with the primary antibody diluted to the optimum concentration in PBS-T with or without 5% milk (m/v) depending on the antibody, for 1 hour with stirring at room temperature or overnight at 4° C.
Under the action of peroxidase and an amplifier, the luminol is oxidized and goes into a transient excited state. […]
(§9) The bands are quantified by means of the Gels Analysts 3.01 software.

[2] = tested on: tyrosinase in MNT-1 melanocytes; assay: Anti-tyrosinase western blot of treated MNT1 cells, bands quantified; format: cell-based, human; conditions: for amount of tyrosinase, change in words: 24 hours or 72 hours after treatment of MNT-1 melanocytes, FIGS. 4A and 4B; for Quantification of tyrosinase at 24 hours / Quantification of tyrosinase at 72 hours: western blot bands, control = 100 %, palmitic or linoleic acid 25 μM, Phaeodactylum 5 μg/ml, Mg132 120 nM where stated; for Quantification of tyrosinase at 24 hours: MNT1 lyzed at 24 hours; for Quantification of tyrosinase at 72 hours: MNT1 lyzed at 72 hours
Method: as §1, §2, §3, §4, §5, §6, §7, §8
Under the action of peroxidase and an amplifier, the luminol is oxidized and goes into a transient excited state. Return to the ground state takes place by emission of photons, which strike an autoradiography film placed on the membrane.
as §9
Starting with cell extracts of MNT-1 melanocytes cultured under these various conditions, with the protocols defined in the “Materials and methods” section, the effects of the extracts of the alga Phaeodactylum tricornutum on the amount of tyrosinase and of its activity were characterized.

[3] = tested on: 20S and 26S forms of the proteasome in MNT-1 melanocyte line; assay: Anti-proteasome western blot of treated MNT1 cells; format: cell-based, human; conditions: lysis of MNT-1 24 hours and 72 hours after treatment, FIGS. 2A and 2B
Method: as §1, §2, §3, §4, §5, §6
Electrophoresis of the proteins is performed in a polyacrylamide minigel 1 mm to […] thick, under denaturing and reducing conditions, in batch buffer according to the Laemmli method (1970). […]
as §9
In parallel, using specific antibodies, the 20S and 26S forms of the proteasome were quantified by western blotting.
For the purpose of determining the cause of this activation of the peptidase activities of the proteasome, we evaluated via the western blotting technique the amount of proteasome in the homogenates obtained from the lysis of MNT-1 24 hours and 72 hours after their treatment with extracts of the alga Phaeodactylum tricornutum, with fatty acids, or with a proteasome-dependent proteolysis inhibitor Mg132).

[4] = tested on: tyrosinase in B16F10 cells; conditions: cited from earlier work; for proteasome-dependent degradation of tyrosinase: B16F10 cells, Ando H. et al., J. Biol. Chem. (2004); for amount of melanin: melanocyte culture, previous study

Row | SMILES | level of ubiquitin proteins [1] | amount of tyrosinase, change in words [2] | Quantification of tyrosinase at 24 hours [2] | Quantification of tyrosinase at 72 hours [2] | amount of proteasome (expression or distribution of the 20S and 26S forms) [3] | proteasome-dependent degradation of tyrosinase [4] | amount of melanin [4]
1 | CCCCC/C=C\C/C=C\CCCCCCCC(=O)O [Linoleic acid] | not affected | significant decrease | 75% and 51% | 13% and 22% | does not modify | stimulated | decrease
2 | CC(C)C[C@@H](C=O)NC(=O)[C@H](CC(C)C)NC(=O)[C@H](CC(C)C)NC(=O)OCc1ccccc1 [Control + Mg132, Z-Leu-Leu-Leu-CHO] (Cbz-Leu-Leu-Leu-aldehyde) | – | this decrease may be reversed | 100% | 100% | – | – | –
3 | CCCCCCCCCCCCCCCC(=O)O [Palmitic acid] | – | – | 135% and 127% | 62% and 88% | – | reduced | inverse effect
